Results taken from paper PMC2994389 (2010).

Biological target: T1, PARP-1 (Homo sapiens, UniProt P09874)
T1 construct: gene PARP1
Assay: colorimetric PARP assay kit (Trevigen), biotinylated NAD incorporation
Format: biochemical

T1 sequence (P09874 2-1014): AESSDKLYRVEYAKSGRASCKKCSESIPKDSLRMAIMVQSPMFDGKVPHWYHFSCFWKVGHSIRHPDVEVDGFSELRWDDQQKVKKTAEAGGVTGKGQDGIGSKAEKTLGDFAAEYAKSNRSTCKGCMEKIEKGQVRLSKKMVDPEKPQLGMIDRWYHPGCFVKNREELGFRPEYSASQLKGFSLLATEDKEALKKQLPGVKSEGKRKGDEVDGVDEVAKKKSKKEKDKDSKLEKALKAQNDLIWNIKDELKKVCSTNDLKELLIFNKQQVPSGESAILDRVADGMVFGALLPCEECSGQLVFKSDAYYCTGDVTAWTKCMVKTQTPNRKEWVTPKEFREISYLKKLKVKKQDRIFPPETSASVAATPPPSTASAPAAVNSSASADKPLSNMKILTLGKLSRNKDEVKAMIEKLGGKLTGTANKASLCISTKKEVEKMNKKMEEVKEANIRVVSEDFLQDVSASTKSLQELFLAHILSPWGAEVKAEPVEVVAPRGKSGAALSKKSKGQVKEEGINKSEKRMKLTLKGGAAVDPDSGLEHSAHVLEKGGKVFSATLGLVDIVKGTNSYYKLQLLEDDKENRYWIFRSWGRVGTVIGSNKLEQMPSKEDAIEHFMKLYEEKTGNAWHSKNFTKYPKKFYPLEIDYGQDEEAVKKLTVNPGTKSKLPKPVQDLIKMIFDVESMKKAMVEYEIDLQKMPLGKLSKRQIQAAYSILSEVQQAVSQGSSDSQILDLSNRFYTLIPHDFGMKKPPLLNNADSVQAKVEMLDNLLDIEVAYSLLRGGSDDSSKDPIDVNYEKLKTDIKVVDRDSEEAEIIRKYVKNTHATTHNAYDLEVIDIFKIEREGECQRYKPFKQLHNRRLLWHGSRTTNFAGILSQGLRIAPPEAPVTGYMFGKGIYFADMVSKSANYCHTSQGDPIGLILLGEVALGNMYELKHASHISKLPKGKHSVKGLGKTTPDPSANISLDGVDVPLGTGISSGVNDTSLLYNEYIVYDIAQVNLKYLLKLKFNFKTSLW

Q: `NCCS(=O)(=O)O` [TAU, taurine] was tested. Which IC50 did it give?
A: Its IC50 is 320 µM.
